Measured values reported in patent publication US12128035B2, “Activating pyruvate kinase R” (Novo Nordisk Health Care AG, priority 2021, dated 2024).
Where “and” joins values, the source holds several entries; their conditions need not be identical. Identical values can stand only once.

Assays:
[1] = target: T1, wt-PKR in mature human erythrocytes (Homo sapiens, UniProt P30613); test: Cell assay: PKR activation in human RBCs (Biovision Pyruvate Kinase Assay); assay type: cell-based; details: 3 hr treatment
T1 construct: host or cells: purified human RBCs from donors
T1 sequence (P30613 whole entry): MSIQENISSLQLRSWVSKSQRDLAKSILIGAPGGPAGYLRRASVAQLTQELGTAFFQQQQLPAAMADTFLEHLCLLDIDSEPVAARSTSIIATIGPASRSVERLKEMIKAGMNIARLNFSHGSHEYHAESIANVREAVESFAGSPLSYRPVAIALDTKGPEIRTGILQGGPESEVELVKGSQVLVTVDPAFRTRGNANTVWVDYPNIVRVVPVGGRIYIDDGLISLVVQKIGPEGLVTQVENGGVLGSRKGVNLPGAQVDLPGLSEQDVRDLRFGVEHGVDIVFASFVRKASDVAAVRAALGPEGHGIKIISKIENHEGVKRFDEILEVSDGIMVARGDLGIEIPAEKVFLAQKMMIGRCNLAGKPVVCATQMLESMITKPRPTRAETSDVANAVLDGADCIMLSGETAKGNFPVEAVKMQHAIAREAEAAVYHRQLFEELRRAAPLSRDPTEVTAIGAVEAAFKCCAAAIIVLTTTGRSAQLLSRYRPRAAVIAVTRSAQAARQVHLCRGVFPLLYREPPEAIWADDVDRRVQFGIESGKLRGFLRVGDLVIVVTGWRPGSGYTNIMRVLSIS
Experimental: The activation of wt-PKR by Compound 1 in mature human erythrocytes ex vivo was evaluated in purified RBCs purchased from Research Blood Components. Cells treated with Compound 1 for 3 hr in glucose-containing media were washed, lysed, and assayed using a Biovision Pyruvate Kinase Assay (K709-100). The assay was repeated multiple times to account for donor-to-donor variability and the relatively narrow dynamic range.

[2] = assay type: physicochemical
Source text: (§1) [drawing 2] is a selective, orally bioavailable PKR Activating Compound that decreases 2,3-DPG, increases ATP, and has anti-sickling effects in disease models with a wide therapeutic margin relative to preclinical toxicity. Compound 1 is a potent activator of PKR and a multi-modal metabolic modulator of RBCs. Activation of PKR simultaneously reduces 2,3-DPG concentrations, which increases hemoglobin-oxygen affinity and decreases sickling, while also increasing intracellular ATP, which improves RBC health and reduces hemolysis, or RBC death. Compound 1 is a BCS class II compound with poor water solubility and high permeability.

Log D7.4 = assay type: physicochemical; details: pH 7.4
Source text: as §1

ATP blood levels = test: Phase 1: blood ATP in SCD patients; assay type: in vivo, human
Experimental: In this study, SAD/MAD cohorts are randomized (3 to 1) to receive Compound 1 or placebo (P). Compound 1 was evaluated first in 4 healthy SAD cohorts and 4 healthy MAD (14-day dosing period) cohorts. Based on the safety, and PK/PD profile from HS, Compound 1 is then evaluated in 1 SCD SAD cohort and 2 SCD MAD cohorts. Specifically, based on the safety and pharmacokinetic/pharmacodynamics (PK/PD) profile in healthy volunteer studies, Compound 1 is evaluated in patients (pts) with SCD, first in a single dose (SD or SAD) cohort and then in multiple-dose (MD or MAD) cohorts (14-day and 12-week). Safety assessments include AEs, vital signs, ECGs and laboratory parameters. PK/PD blood sampling was performed on Day 1 (SAD/MAD) and Day 14 (MAD) and up to 72 h after the last dose and at the end-of-study visit. PD parameters included 2,3-DPG, ATP, and p50 in all cohorts with additional PD studies (including oxygen scan) performed only in the SCD cohorts. PD parameters included 2,3-DPG, ATP, p50, RBC deformability with controlled deoxygenation and reoxygenation (Lorrca® oxygen scan) and varying osmolality (Lorrca® osmoscan)). To maintain study blind, pt identifiers were removed when needed.
The onset of the increase in ATP blood levels after a single 700 mg dose of Compound 1 was faster in SCD patients than in healthy volunteers, while the onset of the decrease in 2,3-DPG blood levels was slower.
The following procedures are employed for the analysis of ATP and 2,3-DPG in human whole blood K2EDTA using a protein precipitation extraction procedure and analysis by LC-MS/MS.
The following procedures are used for sample extraction prior to analysis via LC-MS/MS. 15.0 μL of the calibration standards, quality controls, matrix blanks, and samples are aliquoted into a 96-well plate. 50.0 μL of the internal standard spiking solution is added to all samples on the plate, with the exception of the matrix blank samples; 50.0 μL of water is added to the matrix blank samples. Subsequently, 150 μL of water is added to all samples on the plate. The plate is then covered and agitated by vortex at high speed for ten minutes, after which 750 μL of methanol is added to all samples on the plate. The plate is covered and agitated by vortex for approximately 1 minute. The plate is then centrifuged at approximately 3500 RPM at approximately 4° C. for five minutes. After centrifugation, a liquid handler is used to transfer 50 μL of each sample to a new 96-well plate, and 200 μL of acetonitrile is added to all samples on the plate. The newly prepared plate is covered and agitated by vortex for approximately 1 minute. The plate is then centrifuged at approximately 3500 RPM at approximately 4° C. for 2 minutes.

[3] = Phase 1: hematologic and hemolytic laboratory parameters in SCD patients; assay type: in vivo, human
Source text: Laboratory changes relative to pretreatment for each pt in the MD cohort as of Jul. In 2 of 3 SCD MD-1 pts treated with Compound 1/placebo (currently blinded), Hb increased by >1 g/dL, % reticulocytes decreased, and markers of hemolysis were improved after 14 days of treatment (compared to pre-treatment levels). Hematologic parameters returned to pre-treatment levels 4 to 7 days post-treatment (data not shown) without clinical AEs.
A median 1.2 g/dL Hb increase (range 0, 2.3) and a median 60% reticulocyte decrease (range −39%, −81%) over baseline were observed. The onset of the increase in Hb was rapid and continued to increase in most patients through the end of treatment, indicating the potential for additional improvement with extended dosing. […] A median 36% LDH decrease (range +18%, −57%) and a median 35% bilirubin decrease (range −7%, −63%) over baseline were observed, which is consistent with the hypothesis that Compound 1 improves RBC survival and reduces RBC turnover.

[4] = system: H295R adreno-cortical carcinoma cell line; test: Cell viability (MTT Kit); assay type: cell-based
Experimental: To assess potential effects on steroidogenesis, Compound 1 was screened for steroid modulation in vitro using the H295R adreno-cortical carcinoma cell line (at 200 to 0.0002 μM) and in an assay to monitor cell viability (MTT Kit). Compound 1 indicated steroid modulation potential (% over vehicle) only at 200 μM, the top concentration tested, with 100% cellular viability at concentrations ≤20 μM (90% viability at 200 μM).

[5] = SCD MAD1, 300 mg once daily 14 days, of 7 patients

SMILES: O=C([C@H](CO)c1ccccc1)N1CC2=C(C1)CN(S(=O)(=O)c1cnc3c(c1)OCCO3)C2 (single isomer, unassigned) [Compound 1]
- Max − Min (%), Mean ([1]; mean of replicates): < 100%
- Max − Min (%) ([1]; single replicates): <125% and <150% and <100% and <50%
- BCS class [2]: BCS class II
- Log D7.4 (Log D7.4): 1.09
- mean percentage change in ATP blood levels (ATP blood levels; SCD 300 mg QD, Day 1, 0 h after first daily dose): 0%
- mean percentage change in ATP blood levels (ATP blood levels; SCD 300 mg QD, Day 1, 24 h after first daily dose): 14%
- mean percentage change in ATP blood levels (ATP blood levels; SCD 300 mg QD, Day 14, 0 h after first daily dose): 47%
- mean percentage change in ATP blood levels (ATP blood levels; SCD 300 mg QD, Day 14, 6 h after first daily dose): 44%
- mean percentage change in ATP blood levels (ATP blood levels; SCD 300 mg QD, Day 14, 24 h after first daily dose): 45%
- mean percentage change in ATP blood levels (ATP blood levels; SCD 300 mg QD, Day 14, 48 h after first daily dose): 35%
- mean percentage change in ATP blood levels (ATP blood levels; SCD single 700 mg, 0 h after dose): 0%
- mean percentage change in ATP blood levels (ATP blood levels; SCD single 700 mg, 6 h after dose): 14%
- mean percentage change in ATP blood levels (ATP blood levels; SCD single 700 mg, 24 h after dose): 30%
- mean percentage change in ATP blood levels (ATP blood levels; SCD single 700 mg, 48 h after dose): 30%
- mean percentage change in ATP blood levels (ATP blood levels; SCD single 700 mg, 72 h after dose): 32%
- lag of maximum increase in blood ATP behind maximum plasma concentration (ATP blood levels; SCD single 700 mg, FIG. 54A): at least 24 hours
- increase in ATP blood concentrations (ATP blood levels; SCD, 24 hours after single 700-mg dose, FIG. 46A): 30%
- patients with >1 g/dL increase in hemoglobin ([3]; SCD MAD1, 300 mg once daily 14 days): 6/7
- median Hb increase over baseline ([3]; SCD MAD1, 300 mg once daily 14 days (n = 7), range 0, 2.3): 1.2 g/dL
- patients with a decrease in reticulocytes [3, 5]: 7 and 7/7
- patients with a decrease in total bilirubin [3, 5]: 7
- median LDH decrease over baseline ([3]; SCD MAD1, 300 mg once daily 14 days, range +18%, −57%): 36%
- median bilirubin decrease over baseline ([3]; SCD MAD1, 300 mg once daily 14 days, range −7%, −63%): 35%
- median reticulocyte decrease over baseline ([3]; SCD MAD1, 300 mg once daily 14 days, range −39%, −81%): 60%
- increase in Hb compared with pre-dose on day 1 ([3]; one SCD patient, 300 mg once daily, sustained through day 21, no hydroxyurea): > 2 g/dL
- cellular viability ([4]; 200 μM): 90%
- cellular viability ([4]; concentrations ≤20 μM): 100%
